Laboratory results from article PMC3914206.

Legend:
Assay type in all cases: binding
Conditions in all cases: Compound Concentration 10 µM
panel of 442 kinases [1] = molecular target: T1, panel of 442 kinases (Homo sapiens, UniProt Q13523)
T1 construct: purchased KINOMEscan
From the text: (§1) We assessed the selectivity of members of this scaffold using the KINOMEscan methodology across a near comprehensive panel of 442 kinases [[18,27]].

panel of 442 kinases [2] = molecular target: T2, panel of 442 kinases (Homo sapiens, UniProt P49841)
T2 construct: purchased KINOMEscan
From the text: as §1

panel of 442 kinases [3] = molecular target: T3, panel of 442 kinases (Homo sapiens, UniProt P10721, T670I/V559D)
T3 construct: purchased KINOMEscan
From the text: as §1

panel of 442 kinases [4] = molecular target: T4, panel of 442 kinases (Homo sapiens, UniProt Q6DT37)
T4 construct: purchased KINOMEscan
From the text: as §1

T2 sequence (P49841 whole entry): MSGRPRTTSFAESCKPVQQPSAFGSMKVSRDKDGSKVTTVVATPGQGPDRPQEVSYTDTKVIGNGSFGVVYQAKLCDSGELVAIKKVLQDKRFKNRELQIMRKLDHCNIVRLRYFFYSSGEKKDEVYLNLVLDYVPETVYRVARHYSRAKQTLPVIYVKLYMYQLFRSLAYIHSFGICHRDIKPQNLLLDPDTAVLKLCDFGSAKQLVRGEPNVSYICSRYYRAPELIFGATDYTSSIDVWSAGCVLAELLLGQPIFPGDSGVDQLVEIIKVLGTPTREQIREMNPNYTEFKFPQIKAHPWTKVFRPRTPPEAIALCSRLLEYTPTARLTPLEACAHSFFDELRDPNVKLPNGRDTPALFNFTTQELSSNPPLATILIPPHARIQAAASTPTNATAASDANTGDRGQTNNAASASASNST
T3 sequence (P10721 26-976 V559D/T670I): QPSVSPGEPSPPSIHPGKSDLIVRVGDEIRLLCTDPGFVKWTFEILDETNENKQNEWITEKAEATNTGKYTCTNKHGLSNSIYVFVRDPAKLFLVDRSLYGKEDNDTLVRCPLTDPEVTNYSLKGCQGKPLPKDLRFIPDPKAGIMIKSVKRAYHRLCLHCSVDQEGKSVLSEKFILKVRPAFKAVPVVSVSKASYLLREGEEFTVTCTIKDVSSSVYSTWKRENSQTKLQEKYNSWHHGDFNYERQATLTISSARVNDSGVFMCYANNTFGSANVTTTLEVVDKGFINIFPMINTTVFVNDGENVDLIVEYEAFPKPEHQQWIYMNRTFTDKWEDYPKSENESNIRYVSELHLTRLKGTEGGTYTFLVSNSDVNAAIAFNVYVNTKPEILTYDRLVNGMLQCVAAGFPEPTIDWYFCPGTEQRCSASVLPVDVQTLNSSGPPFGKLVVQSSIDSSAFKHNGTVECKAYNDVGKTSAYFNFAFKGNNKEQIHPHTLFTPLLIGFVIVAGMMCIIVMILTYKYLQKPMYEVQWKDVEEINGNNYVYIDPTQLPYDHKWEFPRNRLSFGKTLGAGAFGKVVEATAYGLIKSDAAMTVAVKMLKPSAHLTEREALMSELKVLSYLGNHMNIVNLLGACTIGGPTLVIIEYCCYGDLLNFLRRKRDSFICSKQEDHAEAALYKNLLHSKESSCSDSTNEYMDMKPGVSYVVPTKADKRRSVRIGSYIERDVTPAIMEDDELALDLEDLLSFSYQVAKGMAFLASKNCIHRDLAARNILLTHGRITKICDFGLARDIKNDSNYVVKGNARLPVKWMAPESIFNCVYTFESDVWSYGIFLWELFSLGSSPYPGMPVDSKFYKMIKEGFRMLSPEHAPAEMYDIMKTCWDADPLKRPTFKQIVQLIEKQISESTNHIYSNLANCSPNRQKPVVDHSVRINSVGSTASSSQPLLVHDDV
T1 sequence (Q13523 whole entry): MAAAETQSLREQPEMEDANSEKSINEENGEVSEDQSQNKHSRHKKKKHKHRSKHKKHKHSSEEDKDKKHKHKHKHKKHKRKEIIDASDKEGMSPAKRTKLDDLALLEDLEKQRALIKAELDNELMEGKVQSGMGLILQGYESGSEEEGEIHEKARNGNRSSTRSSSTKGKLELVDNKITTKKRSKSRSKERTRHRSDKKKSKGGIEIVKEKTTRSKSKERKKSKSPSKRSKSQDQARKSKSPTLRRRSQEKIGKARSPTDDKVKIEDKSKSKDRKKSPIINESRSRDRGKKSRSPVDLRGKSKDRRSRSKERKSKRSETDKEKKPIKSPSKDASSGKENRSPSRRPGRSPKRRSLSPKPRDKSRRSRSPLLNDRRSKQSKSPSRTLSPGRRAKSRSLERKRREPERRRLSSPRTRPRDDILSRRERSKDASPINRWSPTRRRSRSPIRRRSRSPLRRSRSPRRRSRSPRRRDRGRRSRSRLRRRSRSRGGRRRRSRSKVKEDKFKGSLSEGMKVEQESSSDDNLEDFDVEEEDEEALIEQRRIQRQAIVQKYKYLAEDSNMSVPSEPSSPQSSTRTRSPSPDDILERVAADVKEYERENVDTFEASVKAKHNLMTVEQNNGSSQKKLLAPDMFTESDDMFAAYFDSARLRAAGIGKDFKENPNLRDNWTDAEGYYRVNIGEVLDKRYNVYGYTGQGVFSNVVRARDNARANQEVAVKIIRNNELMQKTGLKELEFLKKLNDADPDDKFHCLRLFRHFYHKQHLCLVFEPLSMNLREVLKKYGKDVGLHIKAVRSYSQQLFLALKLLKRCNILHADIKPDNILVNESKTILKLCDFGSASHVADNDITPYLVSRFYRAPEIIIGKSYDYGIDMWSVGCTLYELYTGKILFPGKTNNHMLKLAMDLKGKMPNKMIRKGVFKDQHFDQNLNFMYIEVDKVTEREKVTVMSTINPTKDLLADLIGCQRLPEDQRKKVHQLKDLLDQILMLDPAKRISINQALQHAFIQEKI
T4 sequence (Q6DT37 whole entry): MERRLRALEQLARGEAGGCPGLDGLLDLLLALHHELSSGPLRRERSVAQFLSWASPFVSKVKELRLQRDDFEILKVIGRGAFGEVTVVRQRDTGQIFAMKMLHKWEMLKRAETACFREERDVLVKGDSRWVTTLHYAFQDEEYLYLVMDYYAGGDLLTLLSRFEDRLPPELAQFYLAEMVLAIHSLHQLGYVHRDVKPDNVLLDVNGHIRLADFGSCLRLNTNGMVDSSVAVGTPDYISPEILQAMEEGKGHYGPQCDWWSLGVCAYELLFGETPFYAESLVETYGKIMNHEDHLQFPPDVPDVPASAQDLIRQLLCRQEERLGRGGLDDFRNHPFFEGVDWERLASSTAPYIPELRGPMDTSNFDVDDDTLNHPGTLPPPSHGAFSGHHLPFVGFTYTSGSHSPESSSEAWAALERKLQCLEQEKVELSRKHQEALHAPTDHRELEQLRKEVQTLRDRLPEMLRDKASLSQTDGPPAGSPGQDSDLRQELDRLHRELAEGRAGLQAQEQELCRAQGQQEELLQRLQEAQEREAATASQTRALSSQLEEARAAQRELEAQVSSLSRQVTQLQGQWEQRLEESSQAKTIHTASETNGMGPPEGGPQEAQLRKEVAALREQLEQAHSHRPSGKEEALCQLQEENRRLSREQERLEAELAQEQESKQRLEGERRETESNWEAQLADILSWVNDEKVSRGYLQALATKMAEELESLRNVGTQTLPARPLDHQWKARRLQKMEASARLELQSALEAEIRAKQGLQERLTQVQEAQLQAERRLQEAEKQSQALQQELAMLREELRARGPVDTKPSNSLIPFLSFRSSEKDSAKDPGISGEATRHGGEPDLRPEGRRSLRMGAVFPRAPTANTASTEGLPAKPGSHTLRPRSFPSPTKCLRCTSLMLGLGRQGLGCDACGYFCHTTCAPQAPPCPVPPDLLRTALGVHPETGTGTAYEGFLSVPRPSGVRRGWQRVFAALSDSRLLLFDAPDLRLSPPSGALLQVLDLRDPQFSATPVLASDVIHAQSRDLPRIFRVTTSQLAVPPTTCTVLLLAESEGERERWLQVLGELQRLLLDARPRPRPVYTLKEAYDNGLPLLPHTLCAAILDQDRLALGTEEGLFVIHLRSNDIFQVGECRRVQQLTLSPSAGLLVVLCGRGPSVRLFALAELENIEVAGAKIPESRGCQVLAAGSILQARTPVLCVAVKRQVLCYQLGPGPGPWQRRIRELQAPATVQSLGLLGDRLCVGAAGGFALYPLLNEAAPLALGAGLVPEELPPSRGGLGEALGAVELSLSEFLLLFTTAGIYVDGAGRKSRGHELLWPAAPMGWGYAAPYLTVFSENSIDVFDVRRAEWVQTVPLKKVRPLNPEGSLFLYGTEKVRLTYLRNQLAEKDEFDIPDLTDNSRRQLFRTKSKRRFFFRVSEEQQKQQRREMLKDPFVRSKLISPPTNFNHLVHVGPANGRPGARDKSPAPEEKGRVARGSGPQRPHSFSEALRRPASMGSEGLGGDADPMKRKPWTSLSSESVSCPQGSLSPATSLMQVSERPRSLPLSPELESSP

Structure (SMILES) | KINOMEscan: PRP4 (panel of 442 kinases [1]) | KINOMEscan: GSK3B (panel of 442 kinases [2]) | KINOMEscan: KIT(V559D,T670I) (panel of 442 kinases [3]) | KINOMEscan: DMPK2 (panel of 442 kinases [4])
COc1cc(C(=O)N2CCC(N3CCN(C)CC3)CC2)ccc1Nc1ncc2c(n1)N(C)c1ccccc1C(=O)N2C [15 (LRRK2-IN-1)] | 93 | 88 | 81 | 100
COc1cc(C(=O)N2CCC(N3CCN(C)CC3)CC2)ccc1Nc1ncc2c(n1)N1CCc3cccc(c31)C(=O)N2C [Compound 24] | – | 72 | – | –
COc1cc(C(=O)N2CCC(N3CCN(C)CC3)CC2)ccc1Nc1ncc2c(n1)N(C1CCCC1)c1ccccc1C(=O)N2C [Compound 25, 11-cyclopentyl-2-((2-methoxy-4-(4-(4-methylpiperazin-1-yl)piperidine-1-carbonyl)phenyl)amino)-5-methyl-5H-benzo[e]pyrimido[5,4-b][1,4]diazepin-6(11H)-one] | 95 | 80 | 80 | 94
CCOc1cc(C(=O)N2CCC(N3CCN(C)CC3)CC2)ccc1Nc1ncc2c(n1)N(C1CCCC1)c1ccccc1C(=O)N2C [Compound 26] | 100 | 98 | 100 | 100
